Assay results: PMC7383964 (Chemmedchem, 2020)

Legend:
in vitro = settings: male, Sprague-Dawley, rat, microsomes, pH 7.4
[1] = rat, microsomes
HEK293T cells = settings: human

SMILES	half-life (in vitro)	Intrinsic clearance [1]	Cell density relative to the effect of vehicle (DMSO) (HEK293T cells)
O=C(/N=N/c1ccc(F)cc1)N1CCCCC1 [Compound 18, (E)‐((4‐Fluorophenyl)diazenyl)(piperidin‐1‐yl)methanone]	1.22 ± 0.2 h	97 ± 15 µL/min/mg	–
O=C(/C=C/c1ccc(F)cc1)N1CCCCC1 [Compound 19, (E)‐3‐(4‐Fluorophenyl)‐1‐(piperidin‐1‐yl)prop‐2‐en‐1‐one]	1.42 ± 0.3 h	85 ± 20 µL/min/mg	–
C=CCN1CC[C@]23c4c5ccc(O)c4O[C@H]2C(=O)CC[C@@]3(O)[C@H]1C5 [naloxone]	–	–	84±5%
